Laboratory results: article PMC6315057, “Industrial scale high-throughput screening delivers multiple fast acting macrofilaricides” (Nature Communications, 2019)
In brackets after ≈: the same amount, converted by molar mass. Read-outs that look alike come from different tables or passages of the source.

Experiments:
[1] = system: Wolbachia in C6/36 (wAlbB) cells; assay: Secondary concentration response HTS (IC50) anti-Wolbachia screen in C6/36 (wAlbB) insect cells; format: cell-based, Wolbachia pipientis wAlbB (in Aedes albopictus C6/36 cells); details: 7-day incubation, 10-point concentration range
Description: Initially C6/36 (wAlbB) cells (insect cells stably infected with the Wolbachia target) from a single cryopreserved batch were recovered over 7 days prior to plating into 384-well assay ready plates (containing the test compounds), using a semi-automated process allowing for daily batches of ~150 plates, set up 4 days per week for 8 weeks. After a 7-day incubation period with the test compounds the plates were moved into the second fully automated stage (using the Agilent Technologies BioCel system) involving formaldehyde fixation, DNA staining of the insect cell nuclei (Hoechst) for toxicity analysis and antibody staining specific to the intracellular Wolbachia (wBmPAL primary antibody and far-red secondary antibody). In the final stage the fixed and stained plates from stage 2 were processed through automated data acquisition (High Res Biosolutions system, incorporating EnVision™ and acumen® plate readers). This industry standardised assay was then used to screen AstraZeneca’s full library of 1.3 million compounds within 10 weeks. In total this HTS included 30 × 3 week assays covering 3835 × 384-well plates. This primary HTS generated 20,255 hits defined as >80% reduction in Wolbachia with <60% toxicity to the host insect cell (eliminating false positives). This represents an overall hit rate of 1.56%. These compounds are depicted in chemical space in Fig. 2 (black points)[21].
The mosquito (Aedes albopictus) derived cell line C6/36 (ATCC® CRL 1660), stably infected with Wolbachia pipientis wAlbB (C6/36(wAlbB)), was maintained in Leibovitz L15 medium containing 2 mM L-glutamine, 1% nonessential amino acids, 2% tryptose phosphate broth and 20% heat-inactivated foetal bovine serum (FBS) at 26 °C[18]. This screen exclusively used cells from the large-scale cryopreserved batch produced as part of this campaign by culturing the cells at scale before cryopreservation (90% FBS and 10% DMSO). This produced a cell bank of 190 × 1 ml cryovials containing 3 × 10^7 cells per vial.
(§1) On day 0, a single cryovial was recovered and the cells washed before being transferred to a T225 cm^2 flask. After a 7-day recovery Wolbachia infection level (quality control (QC)) was checked by SYTO®11 DNA staining of both the host cell nuclei and intracellular Wolbachia. The end-point read out from the Operetta® high content imaging system (Perkin Elmer) was the percentage of cells infected with Wolbachia. This was obtained from cytoplasm texture analysis by the associated Harmony® software. Cells with a >50% of the population infected with Wolbachia were classed as having a good Wolbachia level and therefore used for screening through addition of 2000 cells per well into assay ready 384-well plates containing the test compounds. […] Each plate included on-board controls; vehicle/DMSO (total/maximum Wolbachia signal) or doxycycline 5 µM (null/minimum Wolbachia signal), resulting in single shot screening of 352 compounds per plate for the primary screen. […] QC plates were also created including full columns of the following controls; DMSO (total/max), 5 μM doxycycline (null/min), as well as 50 nM doxycycline (reference/medium Wolbachia signal). Daily batches contained ~150 compound plates in addition to the QC plates. Each compound plate was foil sealed before incubation for 7 days at 26 °C, 95% humidity and atmospheric air.
After 7 days of drug incubation, the plates were loaded into the fully automated BioCel system which performed the following additions; fixation and DNA staining (1.8% formaldehyde + 0.6 µg/ml Hoechst 33342, 20 min), permeabilisation (80 μl of PBS + 0.25% Triton-X 100, 30 min), blocking (PBS + 6% BSA, 40 min), overnight incubation in the Wolbachia-specific anti-wBmPAL primary antibody[34] […]

[2] = Human microsome clearance; format: in vitro ADME; details: for microsomal CLint: human microsomes
Description: (§2) The DMPK data used for triaging compounds, including LogD7.4, aqueous solubility, plasma protein binding, microsome and hepatocyte clearance measurements, were generated using the standard AstraZeneca UK high-throughput platform[37],[38].

Rat hepatocyte clearance = format: in vitro ADME
Description: as §2

[3] = system: Wolbachia within Brugia malayi Mf; assay: B. malayi microfilarial (Mf) in vitro anti-Wolbachia assay (wsp:gst qPCR); format: cell-based; details: for EC50: B. malayi Mf, 6 days, read-out: Mf EC50
Description: The Mf were obtained by peritoneal lavage, using a catheter, of gerbils (Meriones unguiculatus) harbouring a patent infection of B. malayi. Mf were purified using a PD-10 desalting column (Fisher), centrifuged (311 RCF for 5 min at room temperature) before the addition of 8000 Mf/well of a 96-well plate (100 µl per well) in complete media consisting of RPMI supplemented with 10% FBS, 1% penicillin streptomycin and 1% amphotericin B. […] Each plate contained doxycycline (5 µM) and DMSO controls. After incubation at 37 °C for 6 days in 5% CO2, visual assessment of Mf motility was performed and scored from 0 to 4 per well (where 0 = no movement and 4 = highly motile). DNA extraction per sample was performed using the QIAmp DNA Mini Kit before quantitative PCR was performed to obtain the ratio of Wolbachia Surface Protein gene copy number (wsp) to Glutathione S-Transferase gene copy number (gst)[36]. The DNA was amplified using the primers as indicated in Supplementary Table 6.
The wsp:gst ratio data allowed for normalisation of the Wolbachia level to the Mf biomass for each well. The change in wsp:gst for each compound compared to the DMSO control was calculated before normalisation to the onboard doxycycline control to allow for inter-assay comparison.

[4] = system: Wolbachia in C6/36 (wAlbB) cells; assay: Confirmatory re-assessment in the insect cell screen (cell assay EC50); format: cell-based, Wolbachia pipientis wAlbB (in Aedes albopictus C6/36 cells); details: insect cell screen, re-sourced or re-synthesised samples
Description: To further validate the hit molecules from these 9 clusters, samples were sourced either from the AstraZeneca compound inventory or through re-synthesis. All 18 samples were characterised by nuclear magnetic resonance (NMR) and mass spectroscopy to confirm their chemical structures and by HPLC/LCMS to establish their purity (Supplementary Table 5 and Supplementary Data 1). These samples were also subject to confirmatory re-assessment in both the insect cell screen and Mf assays for anti-Wolbachia potency alongside confirmation of DMPK properties (LogD7.4, aqueous solubility in pH 7.4 PBS, human microsomal turnover, rat hepatocyte turnover and human plasma protein binding) (Fig. 4, Supplementary Figure 1 and Supplementary Table 4).
as §1

THP-1 cells = assay: Mammalian cell viability counter-screen (CellTiter-Blue); format: cell-based, human; details: 48 h, read-out: HTS IC50 mammalian toxicity
Description: The human monocytic THP-1 cell line (ATCC® TIB-202) used for mammalian cytotoxicity evaluation was routinely cultured in roller bottles. Growth media consisted of RPMI 1640 supplemented with 10% FBS and 2 mM L-glutamine. Cells were maintained at 37 °C with 95% humidity in 5% CO2 in a shaking incubator.
All compounds selected for secondary IC50 screen were tested in parallel for mammalian cell viability using the CellTiter-Blue® Cell Viability Assay. THP1 cells were removed from culture and plated at 1 × 10^4 cells/well (40 µl) into 384-well assay ready plates and incubated at 37 °C, 5% CO2 for 48 h at 95% humidity. After the addition of CellTiter-Blue Viability reagent (8 µl of a 1:6 dilution) the assay plates were incubated for a further 2 h before fluorescence detected using a PerkinElmer EnVision™ plate reader.

[5] = Human plasma protein binding; format: in vitro ADME; details: for fraction unbound: plasma
Description: as §2

[6] = Aqueous solubility in pH 7.4 PBS; format: physicochemical; details: for solubility: PBS pH 7.4, aqueous buffer, pH 7.4 PBS, read-out: Aqueous solubility in pH7.4 PBS
Description: as §2

LogD7.4 = format: physicochemical; details: pH 7.4
Description: as §2

| Structure (SMILES) | IC50 ([1]; Wolbachia, 168 h) | microsomal CLint ([2]; human) | Rat hepatocytes CLint (Rat hepatocyte clearance) | EC50 ([3]; Brugia malayi, 144 h) | EC50 ([4]; Wolbachia, C6/36) | IC50 (THP-1 cells; Homo sapiens) | fraction unbound [5] | solubility [6] | logD (LogD7.4) | Human microsomal stability (in words) [2] | Mf in vitro potency (in words) [3] | Solubility (in words) [6] | IC50 [1] | Human microsome CLint ([2]; human, microsomes) | EC50 [3] | EC50 [4] | IC50 (THP-1 cells) | Human plasma protein binding [5] | LogD 7.4 (LogD7.4) |
| --- | --- | --- | --- | --- | --- | --- | --- | --- | --- | --- | --- | --- | --- | --- | --- | --- | --- | --- | --- |
| Cc1nccc(N2CCC(C(=O)N3CCCN(S(=O)(=O)c4ccc(Br)cc4)CC3)CC2)n1 [1B, (4-((4-bromophenyl)sulfonyl)-1,4-diazepan-1-yl)(1-(2-methylpyrimidin-4-yl)piperidin-4-yl)methanone] | 111 nM | > 300 µL/min/mg | 24.8 µl/min/1x106 cells | ~296 nM | 268 nM | > 30.6 µM | 0.23 | 217 µM (≈ 113 µg/mL) | 2.7 | – | – | – | – | – | – | – | – | – | – |
| O=C(Cc1cccc(F)c1)Nc1[nH]ncc1-c1ccccc1 [2B, 2-(3-fluorophenyl)-N-(4-phenyl-1H-pyrazol-5-yl)acetamide] | 4370 nM | 8.5 µL/min/mg | 39.5 µl/min/1x106 cells | > 5000 nM | 11300 nM | > 30.6 µM | 0.12 | 172 µM (≈ 50.8 µg/mL) | 2.5 | – | – | – | – | – | – | – | – | – | – |
| CN(CC1CCCC(=O)N1)c1cc(OCc2ccccc2)nc(-c2nccn2C)n1 (centres unmarked) [3B, 6-(((6-(benzyloxy)-2-(1-methyl-1H-imidazol-2-yl)pyrimidin-4-yl)(methyl)amino)methyl)piperidin-2-one] | 510 nM | 35.5 µL/min/mg | 218.6 µl/min/1x106 cells | ~223 nM | 645 nM | > 30.6 µM | 0.2 | > 1000 µM | 2.5 | – | – | – | – | – | – | – | – | – | – |
| CNC(=O)c1csc(C2CCCN2Cc2ccc(C)c(F)c2)n1 (centres unmarked) [4B, 2-(1-(3-fluoro-4-methylbenzyl)pyrrolidin-2-yl)-N-methylthiazole-4-carboxamide] | 228 nM | 83.4 µL/min/mg | > 300 µl/min/1x106 cells | 1760 nM | 66 nM | > 30.6 µM | 0.05 | 397 µM (≈ 132 µg/mL) | 3.7 | – | – | – | – | – | – | – | – | – | – |
| Cc1nc(C(=O)NC(C)c2cccc3ccccc23)c(NC(=O)Cc2ccccc2)[nH]1 (centres unmarked) [5B, 2-methyl-N-(1-(naphthalen-1-yl)ethyl)-5-(2-phenylacetamido)-1H-imidazole-4-carboxamide] | 158 nM | 101 µL/min/mg | 71.1 µl/min/1x106 cells | 294 nM | 68 nM | > 30.6 µM | 0.011 | 22 µM (≈ 9.07 µg/mL) | 4.6 | – | – | – | – | – | – | – | – | – | – |
| O=C1NCCCc2nc(N3CCN(c4ccccc4F)CC3)sc21 [6A, 2-(4-(2-fluorophenyl)piperazin-1-yl)-5,6,7,8-tetrahydro-4H-thiazolo[5,4-c]azepin-4-one] | 684 nM | 11.3 µL/min/mg | 55.1 µl/min/1x106 cells | 447 nM | 2560 nM | > 30.6 µM | 0.088 | 26 µM (≈ 9.01 µg/mL) | 2.9 | very good | lower potency than representatives 4A or 5A | acceptable | – | – | – | – | – | – | – |
| Cc1csc(CN(C)c2nc3c(s2)C(=O)NCCC3)n1 [6B, 2-(methyl((4-methylthiazol-2-yl)methyl)amino)-5,6,7,8-tetrahydro-4H-thiazolo[5,4-c]azepin-4-one] | 594 nM | 3.5 µL/min/mg | 22.9 µl/min/1x106 cells | > 5000 nM | 897 nM | > 30.6 µM | 0.4 | 756 µM (≈ 233 µg/mL) | 1.6 | – | – | – | – | – | – | – | – | – | – |
| COCc1ccc(C(=O)Nc2ccc(CNC(=O)c3ccnn3C)cc2C)nc1 [7B, 5-(methoxymethyl)-N-(2-methyl-4-((1-methyl-1H-pyrazole-5-carboxamido)methyl)phenyl) picolinamide] | – | – | 25.0 µl/min/1x106 cells | – | – | – | – | – | – | – | – | – | 2480 nM | 40.7 µL/min/mg | 2220 nM | 3070 nM | > 30.6 µM | 99.5% | 2.3 |
